The term IC50 denotes the concentration needed to halve the response being measured.

This note sets out measurements from US20150299143A1, “SUBSTITUTED TRIAZOLE AND IMIDAZOLE COMPOUNDS” (HOFFMANN-LA ROCHE INC., priority 2012, published 2015).

For test [1], the target named is T1, β5c (chymotrypsin-like activity) (Homo sapiens, UniProt P20618+P28074).
T1 construct: protease activity associated with the proteasome complex in cultured cells; endogenous in cells; host or cells: Ramos cells
Kind of test: Cell-Based Proteasome subunit activity/selectivity assay, β5c, substrate (WLA)2Rh110. The following applies: Ramos cells; substrate (WLA)2Rh110 (β5c); highest concentration tested 20 μM; read-out: Ic50:ramos:rh110-(wla)2. The procedure, abridged:
(§1)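 Subunit activity in cultured cells read with subunit-selective fluorogenic Rh110 substrates: (LLE)2 for β1c, (PAL)2 for β1i, (KQL)2 for β2c/2i, (WLA)2 for β5c. Cells exposed to 4-fold serially diluted compound (top 20 μM) 30 min at 37 °C, then substrate 120 min at room temperature; fluorescence 500/519 nm.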

For test [2], the target named is T2, β 5i (chymotrypsin-like activity) (Homo sapiens, UniProt P20618+P28062).
T2 construct: protease activity associated with the proteasome complex in cultured cells; endogenous in cells; host or cells: Ramos cells
Kind of test: Cell-Based Proteasome subunit activity/selectivity assay, β5i, substrate (ANW)2Rh110. The settings on record: Ramos cells; substrate (ANW)2Rh110 (β5i); highest concentration tested 20 μM; read-out: Ic50:ramos:ac-(anw)2-r110. The procedure, abridged: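 Cell-based fluorogenic assay measuring chymotrypsin-like β5i proteasome activity using the substrate (ANW)2Rh110. Cultured cells received 0.5 μl of 100× 4-fold serial diluted compounds or DMSO per well, were incubated 30 minutes at 37° C, then equilibrated 15 minutes at room temperature. After shaking one minute @ 700 rpm and 120 min room-temperature incubation, fluorescence was read at 500 nm excitation/519 nm emission on an Envision reader.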

A further test has as its target T3, β 1i (caspase-like) (Homo sapiens, UniProt P28065+P40306).
T3 construct: protease activity associated with the proteasome complex in cultured cells; endogenous in cells; host or cells: Ramos cells
In words: Cell-Based Proteasome subunit activity/selectivity assay, β1i, substrate (PAL)2Rh110. The following applies: Ramos cells; substrate (PAL)2Rh110 (β1i); highest concentration tested 20 μM; read-out: Ic50:ramos:rh110-(pal)2. The procedure, abridged: as §1

A further test has as its target T4, β 1c (caspase-like) (Homo sapiens, UniProt P28072+Q99436).
T4 construct: protease activity associated with the proteasome complex in cultured cells; endogenous in cells; host or cells: Ramos cells
In words: Cell-Based Proteasome subunit activity/selectivity assay, β1c, substrate (LLE)2Rh110. The following applies: Ramos cells; substrate (LLE)2Rh110 (β1c); highest concentration tested 20 μM; read-out: Ic50:ramos:rh110-(lle)2. The procedure, abridged:
as §1

For another test, the system named is β 2c/2i (trypsin-like). Kind of test: Cell-Based Proteasome subunit activity/selectivity assay, β2c/2i, substrate (KQL)2Rh110. The settings on record: Ramos cells; substrate (KQL)2Rh110 (β2c/2i); highest concentration tested 20 μM. The essentials:
as §1

Bounds are passed on as bounds.

As to `COc1ccc(C(=O)NCCn2cc(C(=O)NC(C#N)c3ccc(SC)cc3)nn2)c(OC)c1OC` (stereo not drawn) [Example 2, 1-[2-(2,3,4-Trimethoxy-benzoylamino)-ethyl]-1H-[1,2,3]triazole-4-carboxylic acid [cyano-(4-methylsulfanyl-phenyl)-methyl]-amide], the IC50 was at least 20 µM in test [1]; 0.15 µM in test [2]; at least 20 µM at β 1i (caspase-like); at least 20 µM on β 1c (caspase-like); at least 20 µM in the test with β 2c/2i (trypsin-like).
Turning to `CCOc1ccc(C(=O)NCCn2cc(C(=O)NC(C#N)c3ccc(CC)cc3)nn2)nc1` (stereo not drawn) [Example 28, 5-Ethoxy-pyridine-2-carboxylic acid [2-(4-{[cyano-(4-ethyl-phenyl)-methyl]-carbamoyl}-[1,2,3]triazol-1-yl)-ethyl]-amide], the IC50 was 13.3 µM in test [1]; 0.933 µM in test [2]; at least 20 µM on β 1i (caspase-like); at least 20 µM on β 1c (caspase-like); at least 20 µM in the test with β 2c/2i (trypsin-like).
In the case of `COc1ccc(C(=O)NCCn2cc(C(=O)NC(C#N)c3ccc(OCc4ccccc4)cc3)nn2)c(OC)c1OC` (stereo not drawn) [Example 56, 1-[2-(2,3,4-Trimethoxy-benzoylamino)-ethyl]-1H-[1,2,3]triazole-4-carboxylic acid [(4-benzyloxy-phenyl)-cyano-methyl]-amide], the IC50 in test [1] is 8.3 µM; in test [2], 5.68 µM; on β 1i (caspase-like) it was at least 20 µM; on β 1c (caspase-like) it was 19.1 µM; in the test on β 2c/2i (trypsin-like), at least 20 µM.
Turning to `CCc1ccc(C(C#N)NC(=O)c2cn(CCNC(=O)c3ccc(C(F)(F)F)cc3F)nn2)cc1` (stereo not drawn) [Example 38, 1-[2-(2-Fluoro-4-trifluoromethyl-benzoylamino)-ethyl]-1H-[1,2,3]triazole-4-carboxylic acid [cyano-(4-ethyl-phenyl)-methyl]-amide], the IC50 was at least 20 µM in test [1]; 0.017 µM in test [2]; at least 20 µM at β 1i (caspase-like); at least 20 µM on β 1c (caspase-like); at least 20 µM with β 2c/2i (trypsin-like).
Turning to `COc1ccc(C(=O)NCCn2cc(C(=O)NC(C#N)c3ccccc3Br)nn2)c(OC)c1OC` (stereo not drawn) [Example 59, 1-[2-(2,3,4-Trimethoxy-benzoylamino)-ethyl]-1H-[1,2,3]triazole-4-carboxylic acid [(2-bromo-phenyl)-cyano-methyl]-amide], the IC50 in test [1] was at least 20 µM; in test [2], 5.67 µM; at β 1i (caspase-like), at least 20 µM; on β 1c (caspase-like), at least 20 µM; in the test with β 2c/2i (trypsin-like) it was at least 20 µM.
As to `CCc1ccc(C(C#N)NC(=O)c2nc(CCNC(=O)c3ccc(C(F)(F)F)cc3OC)n[nH]2)cc1` (stereo not drawn) [Example 90, 5-[2-(2-Methoxy-4-trifluoromethyl-benzoylamino)-ethyl]-2H-[1,2,4]triazole-3-carboxylic acid [cyano-(4-ethyl-phenyl)-methyl]-amide], the IC50 in test [1] is at least 20 µM; in test [2] it was 0.014 µM; at β 1i (caspase-like), at least 20 µM; on β 1c (caspase-like), at least 20 µM; with β 2c/2i (trypsin-like), at least 20 µM.
In the case of `CCc1ccc(C(C#N)NC(=O)c2cn(CCNC(=O)c3ccc(C(F)(F)F)cn3)nn2)cc1` (stereo not drawn) [Example 45, 5-Trifluoromethyl-pyridine-2-carboxylic acid [2-(4-{[cyano-(4-ethyl-phenyl)-methyl]-carbamoyl}-[1,2,3]triazol-1-yl)-ethyl]-amide], the IC50 in test [1] is at least 20 µM; in test [2], 1.13 µM; at β 1i (caspase-like), at least 20 µM; on β 1c (caspase-like), at least 20 µM; in the test with β 2c/2i (trypsin-like), at least 20 µM.
As to `O=C(CCNC(=O)c1cn(CCNC(=O)c2ccc(C(F)(F)F)cc2F)nn1)c1ccccc1` [Example 78], the IC50 in test [1] is 14.3 µM; in test [2], 0.176 µM; at β 1i (caspase-like), at least 20 µM; on β 1c (caspase-like) it was at least 20 µM; in the test with β 2c/2i (trypsin-like) it was at least 20 µM.
`CCc1ccc(C(C#N)NC(=O)c2cn(CCNC(=O)c3ccc(C)nc3OC)nn2)cc1` (stereo not drawn) [Example 34, N-[2-(4-{[Cyano-(4-ethyl-phenyl)-methyl]-carbamoyl}-[1,2,3]triazol-1-yl)-ethyl]-2-methoxy-6-methyl-nicotinamide]: the IC50 in test [1] is at least 20 µM; in test [2] it was 0.259 µM; on β 1i (caspase-like), at least 20 µM; on β 1c (caspase-like) it was at least 20 µM; with β 2c/2i (trypsin-like), at least 20 µM.
As to `CCc1ccc(CNC(=O)c2cn(CCNC(=O)c3ccc(OC)c(OC)c3OC)nn2)cc1` [Example 7, 1-[2-(2,3,4-Trimethoxy-benzoylamino)-ethyl]-1H-[1,2,3]triazole-4-carboxylic acid 4-ethyl-benzylamide], the IC50 was at least 20 µM in test [1]; 1.16 µM in test [2]; at least 20 µM on β 1i (caspase-like); at least 20 µM at β 1c (caspase-like); at least 20 µM in the test on β 2c/2i (trypsin-like).
Take `CCOC(=O)[C@H](CCc1ccccc1)NC(=O)c1cn(CCNC(=O)c2ccc(C(F)(F)F)cc2F)nn1` [Example 81, (S)-2-({1-[2-(2-Fluoro-4-trifluoromethyl-benzoylamino)-ethyl]-1H-[1,2,3]triazole-4-carbonyl}-amino)-4-phenyl-butyric acid ethyl ester]: the IC50 in test [1] is at least 20 µM; in test [2], 0.205 µM; on β 1i (caspase-like) it was at least 20 µM; at β 1c (caspase-like) it was at least 20 µM; with β 2c/2i (trypsin-like) it was at least 20 µM.
For the compound `CCc1ccc(C(C#N)NC(=O)c2nc(CCNC(=O)c3ccc(C(F)(F)F)cc3F)n[nH]2)cc1` (stereo not drawn) [Example 91, 5-[2-(2-Fluoro-4-trifluoromethyl-benzoylamino)-ethyl]-2H-[1,2,4]triazole-3-carboxylic acid [cyano-(4-ethyl-phenyl)-methyl]-amide], the IC50 in test [1] is at least 20 µM; in test [2], 0.054 µM; on β 1i (caspase-like), at least 20 µM; at β 1c (caspase-like), at least 20 µM; in the test on β 2c/2i (trypsin-like) it was at least 20 µM.
As for `CCc1ccc(C(C#N)NC(=O)c2cn(CCNC(=O)c3ccc(S(C)(=O)=O)cc3Cl)nn2)cc1` (stereo not drawn) [Example 41, 1-[2-(2-Chloro-4-methanesulfonyl-benzoylamino)-ethyl]-1H-[1,2,3]triazole-4-carboxylic acid [cyano-(4-ethyl-phenyl)-methyl]-amide], the half-maximal inhibitory concentration (IC50) in test [1] was at least 20 µM; in test [2], 0.282 µM; at β 1i (caspase-like), at least 20 µM; on β 1c (caspase-like), at least 20 µM; in the test with β 2c/2i (trypsin-like), at least 20 µM.
Regarding `CCc1ccc(C(C#N)NC(=O)c2nc(CCNC(=O)c3ccc(OC)c(OC)c3OC)n[nH]2)cc1` (stereo not drawn) [Example 89, 5-[2-(2,3,4-Trimethoxy-benzoylamino)-ethyl]-2H-[1,2,4]triazole-3-carboxylic acid [cyano-(4-ethyl-phenyl)-methyl]-amide], the 50% inhibitory concentration (IC50) is at least 20 µM in test [1]; 0.054 µM in test [2]; at least 20 µM on β 1i (caspase-like); at least 20 µM at β 1c (caspase-like); at least 20 µM in the test with β 2c/2i (trypsin-like).
Turning to `CCc1ccc(C(C#N)NC(=O)c2cn(CCNC(=O)CC3Cc4ccccc4C3)nn2)cc1` (stereo not drawn) [Example 9, 1-[2-(2-Indan-2-yl-acetylamino)-ethyl]-1H-[1,2,3]triazole-4-carboxylic acid [cyano-(4-ethyl-phenyl)-methyl]-amide], the IC50 in test [1] was at least 20 µM; in test [2] it was 4.29 µM; on β 1i (caspase-like) it was at least 20 µM; at β 1c (caspase-like), at least 20 µM; with β 2c/2i (trypsin-like), at least 20 µM.
Turning to `COc1ccc(C(=O)NCCn2cc(C(=O)NC(C#N)c3ccc(OC(F)(F)F)cc3)nn2)c(OC)c1OC` (stereo not drawn) [Example 10, 1-[2-(2,3,4-Trimethoxy-benzoylamino)-ethyl]-1H-[1,2,3]triazole-4-carboxylic acid [cyano-(4-trifluoromethoxy-phenyl)-methyl]-amide], the IC50 in test [1] is at least 20 µM; in test [2], 0.886 µM; on β 1i (caspase-like), at least 20 µM; at β 1c (caspase-like) it was at least 20 µM; in the test on β 2c/2i (trypsin-like) it was at least 20 µM.
On to `CCc1ccc(C(C#N)NC(=O)c2cn(CCNC(=O)c3ccc(Oc4ccc(Cl)cc4)cn3)nn2)cc1` (stereo not drawn) [Example 43, 5-(4-Chloro-phenoxy)-pyridine-2-carboxylic acid [2-(4-{[cyano-(4-ethyl-phenyl)-methyl]-carbamoyl}-[1,2,3]triazol-1-yl)-ethyl]-amide], for which the IC50 was 6.21 µM in test [1]; 1.43 µM in test [2]; at least 20 µM on β 1i (caspase-like); at least 20 µM at β 1c (caspase-like); at least 20 µM in the test on β 2c/2i (trypsin-like).
Consider `COc1ccc(C(C#N)NC(=O)c2cn(CCNC(=O)c3ccc(OC)c(OC)c3OC)nn2)cc1` (stereo not drawn) [Example 8, 1-[2-(2,3,4-Trimethoxy-benzoylamino)-ethyl]-1H-[1,2,3]triazole-4-carboxylic acid [cyano-(4-methoxy-phenyl)-methyl]-amide], for which the concentration for half-maximal inhibition (IC50) in test [1] is at least 20 µM; in test [2] it was 0.423 µM; on β 1i (caspase-like) it was at least 20 µM; on β 1c (caspase-like), at least 20 µM; in the test on β 2c/2i (trypsin-like), at least 20 µM.
